Source: patent US20040229848A1, “Glutaminyl based DP IV-inhibitors” (priority 2003, published 2004)

Target: glutaminyl cyclase (QC) (Homo sapiens, UniProt Q16769)
Test: not given
Settings: not given

glutaminyl cyclase (QC), sequence (Q16769 29-361): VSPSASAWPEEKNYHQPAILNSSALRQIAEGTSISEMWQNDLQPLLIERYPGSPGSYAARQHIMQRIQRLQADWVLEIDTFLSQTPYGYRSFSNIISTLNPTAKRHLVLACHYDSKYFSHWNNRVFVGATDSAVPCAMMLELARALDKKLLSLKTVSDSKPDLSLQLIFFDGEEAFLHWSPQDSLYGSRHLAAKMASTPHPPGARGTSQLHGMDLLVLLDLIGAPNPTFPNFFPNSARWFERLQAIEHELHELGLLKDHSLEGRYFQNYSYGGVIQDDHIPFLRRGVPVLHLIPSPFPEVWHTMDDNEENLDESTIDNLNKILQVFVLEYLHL

SMILES	degradation by glutaminyl cyclase	half-life in the presence of QC
NC(=O)CC[C@H](N)C(=O)N1CCSC1 [glutaminyl thiazolidine]	degraded to the pyro-glutaminyl-thiazolidine	reduced

Same assay, conditions: case (c): 2.6*10^−5 M glutaminyl thiazolidine, 54 mU QC and 0.4 mM inhibitor

SMILES	reaction rate of H-Gly-Pro-pNA hydrolysis after addition of the QC inhibitor
c1ccc2[nH]cnc2c1 [benzimidazole]	the reaction rate goes down as low as in case (a)

Target: DPIV (Homo sapiens, UniProt P27487)
Test: DPIV activity assay, hydrolysis of H-Gly-Pro-pNA
Settings: 0.4 mM H-Gly-Pro-pNA, 0.65 mU DPIV, 0.04 M Hepes pH 7.6, 30° C.; 2.6*10^−5 M glutaminyl thiazolidine
Method: All assays were performed at 30° C. using the Sunrise reader for microplates (TECAN). […] Additionally, samples contained either
a) 2.6*10^−5 M glutaminyl thiazolidine (open circles), or
Otherways, reactions were started by addition of a mixture of H-Gly-Pro-pNA and glutaminyl thiazolidine. Reactions were followed by monitoring the decrease in absorbance at 400 nm.

DPIV, sequence (P27487 whole entry): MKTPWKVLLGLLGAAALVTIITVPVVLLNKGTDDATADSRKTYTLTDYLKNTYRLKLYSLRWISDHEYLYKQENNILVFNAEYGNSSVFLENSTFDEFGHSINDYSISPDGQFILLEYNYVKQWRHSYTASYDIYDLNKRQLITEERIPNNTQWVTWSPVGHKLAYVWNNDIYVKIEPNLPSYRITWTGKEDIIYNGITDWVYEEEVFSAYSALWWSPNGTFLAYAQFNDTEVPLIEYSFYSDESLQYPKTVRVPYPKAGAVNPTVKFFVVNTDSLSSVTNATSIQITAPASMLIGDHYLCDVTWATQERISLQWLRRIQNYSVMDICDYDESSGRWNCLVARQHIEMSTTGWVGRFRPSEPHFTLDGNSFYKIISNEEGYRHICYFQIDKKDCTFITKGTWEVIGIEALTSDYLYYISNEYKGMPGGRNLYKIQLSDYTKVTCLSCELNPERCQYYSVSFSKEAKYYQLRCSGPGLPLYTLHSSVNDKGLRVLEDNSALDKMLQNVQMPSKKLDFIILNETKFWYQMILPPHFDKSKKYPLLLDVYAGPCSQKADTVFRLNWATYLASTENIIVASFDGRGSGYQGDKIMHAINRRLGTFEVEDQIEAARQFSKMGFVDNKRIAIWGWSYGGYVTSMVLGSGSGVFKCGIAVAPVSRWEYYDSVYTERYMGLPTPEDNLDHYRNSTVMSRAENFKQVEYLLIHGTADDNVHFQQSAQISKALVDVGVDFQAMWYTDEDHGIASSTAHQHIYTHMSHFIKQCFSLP

SMILES	inhibition of DPIV (hydrolysis of H-Gly-Pro-pNA)
NC(=O)CC[C@H](N)C(=O)N1CCSC1 [glutaminyl thiazolidine]	competitive inhibition
O=C1CCC(C(=O)N2CCSC2)N1 (centres unmarked) [pyro-glutaminyl-thiazolidine]	not active

Target: human QC (Homo sapiens, UniProt Q16769)
Test: Inhibition of the human QC (glutaminyl cyclase) catalyzed reaction, Ki determination
Settings: not given

human QC, sequence (Q16769 29-361): as the sequence (Q16769 29-361) above

SMILES	Ki [µM]
S=C(NCCn1ccnc1)Nc1ccc(Cl)cc1 [N-(4-chlorophenyl)-N′-[2-(1H-imidazol-1-yl)ethyl]thiourea]	1.65 ± 0.07
O=C(O)c1ccc(OCCn2ccnc2)cc1 [4-[2-(1H-imidazol-1-yl)-ethoxy]benzoic acid]	3.4 ± 0.1
COC(=O)[C@@H](NC(=O)[C@@H](N)CCC(=O)Nn1ccnc1)C(C)C [Methyl (2S)-2-{[(28)-2-amino-5-(1H-imidazol-1-ylamino)-5-oxopentanoyl]amino}-3-methylbutanoate]	164 ± 4

Results, then the compound that gave them:

Ki [µM]	SMILES
30 ± 1	Cn1ccnc1 [1-methylimidazole]
2.5 ± 0.1	Cc1c(C(=O)CCn2ccnc2)sc2ccccc12 [3-(1H-imidazol-1-yl)-1-(3-methylbenzo[b]thiophene-2-yl)propan-1-one]
6.7 ± 0.3	CCCC1C(=O)OCC1Cc1cncn1C (centres unmarked) [4-[(1-methyl-1H-imidazol-5-yl)methyl]-3-propyldihydrofuran-2-(3H)-one]
0.41 ± 0.01	O=C1CNC(=S)N1CCCn1ccnc1 [3-[3-(1H-imidazol-1-yl)propyl]-2-thioxoimidazolidin-4-one]
32.2 ± 0.7	COC(=O)[C@H](C)NC(=O)C1CCC(Cn2ccnc2)N1 (some centres unmarked) [2-[(5-imidazol-1-ylmethyl-pyrrolidine-2-carbonyl)-amino]-propionic acid methyl ester]
78 ± 2	O=C(C(=O)n1ccnc1)n1ccnc1 [oxalic acid dilmidazolidide]
35.6 ± 0.5	c1ccn2cncc2c1 [Imidazo[1.5a]pyridine]
6.6 ± 0.4	O=C(Nc1ccccc1C(=O)NCCCn1ccnc1)c1ccc([N+](=O)[O-])o1 [5-nitro-2-[2-([{3-(1H-imidazol-1-yl-)propyl}amino]carbonyl)phenyl]furamide]

Same assay, conditions: QC inhibition by L-histamine and its two biological metabolites (Table 4)

Ki value (mM)	SMILES
n.i	Cn1cnc(CCN)c1 [1-methyl-4-(β-aminoethyl)-imidazole]

Same assay, conditions: human QC catalyzed reaction; 30° C. in 0.05 M Tris-HCl pH 8.0, containing 5 mM EDTA

SMILES	Ki-value (mM)
Clc1nc2ccccc2[nH]1 [2-chioro-1H-benzimidazole]	no inhibition
c1ccc(-n2ccnc2)cc1 [1-phenylimidazole]	no inhibition

The next lines start with the values.

Ki-value (mM)	SMILES
no inhibition	O=S(=O)(n1ccnc1)n1ccnc1 [1,1′-sulfonyldiimidazole]
no inhibition	c1ccc(-c2nc[nH]c2-c2ccccc2)cc1 [4,5-diphenyl-imidazole]
no inhibition	N#Cc1nc[nH]c1C#N [4,5-dicyanoimidazole]

Same assay, conditions: read-out: Ki value; QC inhibition by L-histamine and its two biological metabolites (Table 4)

SMILES	Ki [µM]
Cn1cncc1CCN [3-methyl-4-(β-aminoethyl)-imidazole]	120 ± 4
NCCc1c[nH]cn1 [L-histamine]	850 ± 40

Same assay, conditions: read-out: Ki-value; human QC catalyzed reaction; 30° C. in 0.05 M Tris-HCl pH 8.0, containing 5 mM EDTA

SMILES	Ki [µM]
NCCCn1ccnc1 [1-(3-aminopropyl)-imidazole]	410 ± 10
Nc1nc2ccccc2[nH]1 [2-aminobenzimidazole]	1800 ± 100
NC(=O)c1[nH]cnc1N [4-amino-imidazole-5-carbonic acid amide]	15500 ± 500
N[C@H](CO)Cc1c[nH]cn1 [L-histidinol]	1530 ± 120
COC(=O)c1c[nH]cn1 [imidazole-4-carbonic acid methylester]	14500 ± 600
N[C@@H](Cc1c[nH]cn1)C(=O)O [L-histidine]	4400 ± 200
O=C(Cn1ccnc1)c1ccccc1 [1-(2-oxo-2-phenyl-ethyl)-imidazole]	184 ± 5
CC(=O)n1ccnc1 [N-acetylimidazole]	107 ± 3
Cc1nc2ccccc2[nH]1 [2-methyl-benzylimidazole]	165 ± 4
C[Si](C)(C)n1ccnc1 [N-(trimethylsilyl)-imidazole]	167 ± 7
NCCc1c[nH]cn1 [L-histamine]	850 ± 40

The next lines start with the values.

Ki [µM]	SMILES
580 ± 40	CCc1nc(C)c[nH]1 [2-ethyl-4-methyl-imidazole]
129 ± 5	Cc1nc[nH]c1CO [5-hydroxymethyl-4-methyl-imidazole]
7600 ± 700	O=Cc1c[nH]cn1 [4-imidazole-carboxaldehyde]
174 ± 7	O=C(c1ccccc1)n1ccnc1 [N-benzoylimidazole]
560 ± 40	NC(=O)[C@@H](N)Cc1c[nH]cn1 [L-histidinamide]
49 ± 2	C=Cn1ccnc1 [1-vinylimidazole]
